Calls of active or inactive are those of the source. The rule behind the calls is not given here.
Experiments:
RAW264.7 = assay: Antiinflammatory activity in mouse RAW264.7 cells assessed as inhibition of LPS/IFNgamma-induced NO production by measuring NO level preincubated for 2 hrs and followed by LPS/IFNgamma addition and measured after 24 hrs by Griess assay; assay type: functional, cell-based
[1] = target: Acetylcholinesterase (Electrophorus electricus) (UniProt O42275); assay: (§1) Inhibition of electric eel AChE using acetylthiocholine iodide as substrate pretreated for 15 mins followed by substrate addition and measured after 60 mins by Ellman's method
Acetylcholinesterase (Electrophorus electricus), sequence (O42275 24-633 limits assumed): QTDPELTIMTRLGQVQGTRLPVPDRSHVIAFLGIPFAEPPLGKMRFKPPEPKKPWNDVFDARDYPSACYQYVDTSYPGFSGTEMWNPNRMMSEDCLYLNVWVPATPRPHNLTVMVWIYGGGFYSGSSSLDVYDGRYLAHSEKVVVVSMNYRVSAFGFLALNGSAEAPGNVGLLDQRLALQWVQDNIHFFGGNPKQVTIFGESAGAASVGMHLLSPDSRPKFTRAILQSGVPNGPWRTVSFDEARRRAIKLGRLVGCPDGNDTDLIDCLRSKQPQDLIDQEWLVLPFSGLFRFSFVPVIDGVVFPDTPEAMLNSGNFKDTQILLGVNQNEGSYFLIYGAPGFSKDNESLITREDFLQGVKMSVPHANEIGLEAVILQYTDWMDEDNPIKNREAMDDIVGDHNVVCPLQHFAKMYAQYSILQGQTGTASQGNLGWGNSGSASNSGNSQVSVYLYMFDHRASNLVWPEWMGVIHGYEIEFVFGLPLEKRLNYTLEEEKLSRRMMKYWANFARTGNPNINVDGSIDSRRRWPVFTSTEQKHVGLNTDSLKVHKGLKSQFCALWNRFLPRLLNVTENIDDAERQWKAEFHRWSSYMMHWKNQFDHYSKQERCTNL

PC-12 [2] = assay: Neuroprotective activity against TBHP-induced cellular damage in rat PC12 cells assessed as cell viability at 10 uM pretreated for 1 hr followed by TBHP addition and measured after 3 hrs by CCK8 assay (reference value: 27.3%); assay type: functional; conditions: for viability at 10 µM: read-out: Activity
Acetylcholinesterase = Acetylcholinesterase (Electrophorus electricus, UniProt O42275); assay: as §1
Acetylcholinesterase, sequence (O42275 whole entry): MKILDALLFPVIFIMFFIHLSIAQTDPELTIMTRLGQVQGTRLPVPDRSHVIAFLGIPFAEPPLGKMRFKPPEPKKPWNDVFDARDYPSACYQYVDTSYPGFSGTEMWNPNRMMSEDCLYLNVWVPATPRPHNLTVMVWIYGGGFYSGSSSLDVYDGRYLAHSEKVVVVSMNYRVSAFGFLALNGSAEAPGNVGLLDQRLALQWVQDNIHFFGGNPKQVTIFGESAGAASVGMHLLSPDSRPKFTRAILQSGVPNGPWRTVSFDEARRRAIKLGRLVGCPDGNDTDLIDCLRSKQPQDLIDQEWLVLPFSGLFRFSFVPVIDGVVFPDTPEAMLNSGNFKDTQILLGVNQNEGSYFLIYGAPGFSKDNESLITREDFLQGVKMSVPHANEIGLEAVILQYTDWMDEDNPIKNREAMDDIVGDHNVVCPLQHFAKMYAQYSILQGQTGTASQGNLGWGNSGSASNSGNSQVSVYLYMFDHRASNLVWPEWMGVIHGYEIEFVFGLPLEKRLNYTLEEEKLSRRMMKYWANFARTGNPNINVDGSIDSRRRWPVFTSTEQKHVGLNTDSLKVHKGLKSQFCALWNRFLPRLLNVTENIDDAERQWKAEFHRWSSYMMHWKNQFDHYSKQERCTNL

[3] = target: Acetylcholinesterase (Electrophorus electricus) (UniProt O42275); assay: Inhibition of electric eel AChE at 12.5 uM using acetylthiocholine iodide as substrate pretreated for 15 mins followed by substrate addition and measured after 60 mins by Ellman's method relative to control
PC-12 [4] = assay: Toxicity in TBHP treated rat PC12 cells assessed as reduction cell viability at 10 uM pretreated for 1 hr followed by TBHP addition and measured after 3 hrs by CCK8 assay; assay type: cell-based; conditions: pc-12, 3 h

SMILES: COC(=O)CCc1cc(OC)c2c(c1)[C@H](C(=O)OC)[C@@H](c1ccc(O)c(OC)c1)O2
- IC50 (RAW264.7): 231 µM
- inhibition (RAW264.7): Dose-dependent effect
- inhibition [1]: inactive

SMILES: COc1cc(/C=C/C(=O)OCCCc2cc(OC)c3c(c2)C(COC(=O)/C=C/c2ccc(O)c(OC)c2)C(c2ccc(O)c(OC)c2)O3)ccc1O (stereo unspecified)
- IC50 (RAW264.7): 9.4 µM
- inhibition (RAW264.7): Dose-dependent effect
- viability at 10 µM (PC-12 [2]): 72.7%
- IC50 (Acetylcholinesterase): 29.8 µM
- inhibition [1]: Dose-dependent effect

SMILES: COc1cc(/C=C/c2ccc3c(c2)[C@H](c2cc(OC)cc(OC)c2)[C@@H](c2ccc(O)cc2)O3)cc(OC)c1
- IC50 (RAW264.7): 24 µM
- inhibition (RAW264.7): Dose-dependent effect
- viability at 10 µM (PC-12 [2]): 75.5%
- IC50 (Acetylcholinesterase): 11.7 µM
- inhibition [3]: > 50%

SMILES: Oc1ccc([C@H]2Oc3ccc(/C=C/c4cc(O)cc(O)c4)cc3[C@@H]2c2cc(O)cc(O)c2)cc1
- IC50 (RAW264.7): 80.2 µM
- inhibition (RAW264.7): Dose-dependent effect
- viability at 10 µM (PC-12 [2]): 60.2%
- IC50 (Acetylcholinesterase): 4.3 µM
- inhibition [3]: > 50%

SMILES: COC(=O)/C=C/c1cc(OC)c2c(c1)[C@H](C(=O)OC)[C@@H](c1ccc(O)c(OC)c1)O2 (racemic)
- IC50 (RAW264.7): 51.4 µM
- inhibition (RAW264.7): Dose-dependent effect
- inhibition [1]: inactive

SMILES: COc1cc([C@H]2Oc3c(OC)cc(CCCO)cc3[C@@H]2CO)ccc1O [DIHYDRODEHYDRODICONIFERY ALCOHOL]
- IC50 (RAW264.7): 60.4 µM
- inhibition (RAW264.7): Dose-dependent effect
- inhibition [1]: inactive

SMILES: COc1cc([C@@H]2Oc3c(OC)cc(/C=C/C(=O)NCCc4ccc(O)cc4)cc3[C@H]2C(=O)NCCc2ccc(O)cc2)ccc1O [GROSSAMIDE]
- IC50 (RAW264.7): 24.7 µM
- inhibition (RAW264.7): Dose-dependent effect
- Activity (PC-12 [2]): inactive
- IC50 (Acetylcholinesterase): 39.3 µM
- inhibition [1]: Dose-dependent effect
- Activity (PC-12 [4]): Toxic

SMILES: COc1cc(/C=C/c2ccc(O)cc2)cc(OC)c1 [PTEROSTILBENE]
- IC50 (RAW264.7): 30 µM
- inhibition (RAW264.7): Dose-dependent effect

SMILES: O=c1c(O)c(-c2ccc(O)c(O)c2)oc2cc(O)cc(O)c12 [QUERCETIN]
- viability at 10 µM (PC-12 [2]): 65.1%

SMILES: Oc1ccc(/C=C/c2cc(O)cc(O)c2)cc1 [RESVERATROL]
- IC50 (RAW264.7): 44.1 µM
- inhibition (RAW264.7): Dose-dependent effect
- viability at 10 µM (PC-12 [2]): 57.5%
